Assay results from paper PMC11555678, “Improved Broad Spectrum Antifungal Drug Synergies with Cryptomycin, a Cdc50-Inspired Antifungal Peptide” (ACS Infectious Diseases, 2024).
≈ marks a conversion by molar mass, not a printed value. Like-named read-outs stand apart in the source and are kept apart here. Square brackets hold non-standard residues; d marks the D form. Ends that are not written are not given here. Peptide text beside a SMILES is read from it. * marks the point of attachment. Myristoyl = CCCCCCCCCCCCCC(=O)*; Orn = NCCC[C@H](N)C(=O)O

Columns and labels:
[1] = system: C. neoformans H99; set-up: method as in PMID 35377230; conditions: with CAS, additive drug synergy; cited from earlier work
From the text: We endeavored to develop an inhibitor to target flippase function in Cn and harness the critical importance of Cdc50 in antifungal drug resistance and virulence. […] The peptide sequence was identified using an epitope approach. First, anti-Cdc50 polyclonal antibodi ...

[2] = system: C. neoformans H99; conditions: previously published peptide; cited from earlier work
[3] = system: C. auris B11245; experiment: microbe, parasite or virus in culture; format: cell-based, Candida auris; conditions: compound alone; RPMI1640, 37 °C, 48 h; * = paradoxical growth observed (CAS)
Experimental: (§1) All microdilution assays with fungi were carried out in accordance with CLSI protocols from M27 for yeasts and M38 for filamentous fungi, respectively, unless otherwise specified.[64],[65] Briefly, 96-well plates were charged with RPMI1640 media, with operating volume in the first column, 200 μL, and half operating volume, 100 μL, in the remaining wells. Drug stock solution in DMSO was aliquoted into the first well in each row. Half of the volume in the dosed well was serially diluted 2-fold until column 11. Column 11 was used as the negative growth control, and column 12 was used as the positive growth control. ON yeast cultures in YPD were washed twice in DD-H2O, resuspended in PBS, and adjusted to 5000 cfu/mL in RPMI. The 96-well plate was inoculated with 100 μL aliquots of cell suspension per well. Plates were incubated at 37 °C for 2 days.

[4] = system: A. fumigatus AF293; experiment: microbe, parasite or virus in culture; format: cell-based, Aspergillus fumigatus; conditions: compound alone; RPMI1640, 37 °C, 48 h; * = paradoxical growth observed (CAS)
Experimental: as §1

[5] = system: Cn crm1Δ; experiment: microbe, parasite or virus in culture; format: cell-based, Cryptococcus neoformans; conditions: YPD + 0 mM Ca2+, 37 °C, 48 h
Experimental: (§2) Previous studies have shown that modifying microbiological media with salts such as CaCl2 can have a drastic effect on the growth of fungi and their responses to antifungals.[19],[35] In the case of CaCl2, the divalent cation, Ca^2+, is involved in fungal cell stress response. To understand how the peptide activity may involve calcium and stress response, the MICs of KKOO, KKOO-NH2, FLC, and CAS were assessed as a function of the calcium concentration in liquid YPD media. It was observed that calcium enrichment completely desensitized the wild-type strain to KKOO and KKOO-NH2, Tables 7 and 8, respectively. Effects of calcium enrichment on the susceptibility of Cryptococcus to CAS similar to literature values were recorded, Supporting Information, Table S7.[35]
as §1

[6] = system: Cn apt1Δ; experiment: microbe, parasite or virus in culture; format: cell-based, Cryptococcus neoformans; conditions: 37 °C, 48 h
Experimental: as §2, §1

[7] = system: Cn Crm1-oe; experiment: microbe, parasite or virus in culture; format: cell-based, Cryptococcus neoformans; conditions: YPD + 0 mM Ca2+, 37 °C, 48 h
Experimental: as §2, §1

[8] = system: Cn H99; experiment: microbe, parasite or virus in culture; format: cell-based, Cryptococcus neoformans; conditions: 37 °C, 48 h
Experimental: as §2
(§3) In order to control for the effects of enriching YPD with a divalent cation, MICs and ROS production were also measured as a function of the MgCl2 supplement at the same millimolar concentrations of cation as in the CaCl2-modified experiments. […] No peptide susceptibility changes were observed against Cn cdc50Δ in magnesium-enriched media, Table S9. ROS production in H99 induced by peptide exposure was inhibited after 30 min of treatment in the magnesium-enriched condition, similar to the levels observed in the calcium-enriched media at 16 μg/mL KKOO-NH2, Figure S1. […] The link between peptide activity and calcium homeostasis may be vital in understanding precisely how the peptide kills fungal cells and requires more research to elucidate.
as §1

[9] = system: Cn cdc50Δ; experiment: microbe, parasite or virus in culture; format: cell-based, Cryptococcus neoformans; conditions: 37 °C, 48 h
Experimental: as §2, §3, §1

[10] = system: C. neoformans H99; format: cell-based, Cryptococcus neoformans; conditions: 2× MIC; subsequent rebound of the population through 8 h; RPMI1640, 30 °C
Experimental: Culture tubes were prepared with aliquots of 2.0 mL of RPMI1640 (containing Q, MOPS, pH = 7, no phenol red). The tubes were sealed to prevent evaporation and were equilibrated with the incubation chamber overnight, at 30 °C. On the day of the experiment, overnight yeast cultures in YPD were washed twice with DD-H2O and resuspended in DD-H2O. The OD600 of the cell suspension was adjusted to 4.6, ≈2 × 10^6 cfu/mL, in DD-H2O. A 200 μL aliquot of adjusted cell suspension was added systematically to each tube, followed by 200 μL sampling for the 0 h time point. Immediately after sampling, the antifungal compounds were added, and the tubes were placed in the incubator at 30 °C with shaking at 225 rpm. The sampled aliquot was transferred to a 96-well plate and serially diluted six times, 10-fold each time. The resulting cell suspensions were spotted onto YPD plates in a grid pattern of 5 μL per spot. Subsequently, tubes were briefly removed from the incubator, and 100 μL aliquots were sampled at 2, 4, 6, and 8 h time points. Cells were counted on the YPD plates at either 24 or 48 h after plate spotting, depending on when the colonies were countable. Images of the YPD plates were recorded on the Bio-Rad Gel imager after 48 h of incubation at 30 °C. […] 2 C = number of colonies counted, Df = dilution factor = 10^n–1, n = column that the cells were counted, and Vf = volume factor = 1/0.005 mL.

[11] = system: C. neoformans Crm1^OE; experiment: microbe, parasite or virus in culture; format: cell-based, Cryptococcus neoformans; conditions: compound alone; RPMI1640, 37 °C, 48 h
Experimental: as §1

[12] = system: C. neoformans H99; experiment: microbe, parasite or virus in culture; format: cell-based, Cryptococcus neoformans
Experimental: as §1

[13] = system: C. neoformans apt2Δ; experiment: microbe, parasite or virus in culture; format: cell-based, Cryptococcus neoformans; conditions: compound alone; RPMI1640, 37 °C, 48 h
Experimental: as §1

[14] = system: C. neoformans MRL862; experiment: microbe, parasite or virus in culture; format: cell-based, Cryptococcus neoformans; conditions: compound alone; RPMI1640, 37 °C, 48 h
Experimental: as §1

[15] = system: C. neoformans cdc50Δ; experiment: microbe, parasite or virus in culture; format: cell-based, Cryptococcus neoformans
Experimental: as §1

[16] = system: C. neoformans apt3Δ; experiment: microbe, parasite or virus in culture; format: cell-based, Cryptococcus neoformans; conditions: compound alone; RPMI1640, 37 °C, 48 h
Experimental: as §1

[17] = system: C. neoformans crm1Δ; experiment: microbe, parasite or virus in culture; format: cell-based, Cryptococcus neoformans; conditions: compound alone; RPMI1640, 37 °C, 48 h
Experimental: as §1

[18] = system: C. neoformans apt1Δ; experiment: microbe, parasite or virus in culture; format: cell-based, Cryptococcus neoformans; conditions: compound alone; RPMI1640, 37 °C, 48 h
Experimental: as §1

[19] = system: C. neoformans apt4Δ; experiment: microbe, parasite or virus in culture; format: cell-based, Cryptococcus neoformans; conditions: compound alone; RPMI1640, 37 °C, 48 h
Experimental: as §1

[20] = system: C. glabrata FKS2-S663P; experiment: microbe, parasite or virus in culture; format: cell-based, Candida glabrata; conditions: compound alone; RPMI1640, 37 °C, 48 h
Experimental: as §1

[21] = system: C. glabrata FKS1-S629P; experiment: microbe, parasite or virus in culture; format: cell-based, Candida glabrata; conditions: compound alone; RPMI1640, 37 °C, 48 h
Experimental: as §1

[22] = system: C. glabrata 2001; experiment: microbe, parasite or virus in culture; format: cell-based, Candida glabrata
Experimental: as §1

[23] = system: C. albicans SC5413; experiment: microbe, parasite or virus in culture; format: cell-based, Candida albicans
Experimental: as §1

[24] = Table S1, unit and conditions not given (MICs elsewhere in μg/mL)
[25] = compound alone, RPMI1640, 37 °C, 48 h

AW9-Ma (Myristoyl-WGGIKKNYA)
fractional inhibition concentration (FIC) index [1]: 0.5
MIC [2]: 64 µg/mL

CCCCCCCCCCCCCC(=O)N[C@@H](Cc1c[nH]c2ccccc12)C(=O)NCC(=O)NCC(=O)N[C@H](C(=O)N[C@@H](CCCN)C(=O)N[C@@H](CCCN)C(=O)N[C@@H](CC(N)=O)C(=O)N[C@@H](Cc1ccc(O)cc1)C(=O)N[C@@H](C)C(=O)O)[C@@H](C)CC [KKOO] (Myristoyl-WGGI[Orn][Orn]NYA-OH)
MIC [3]: > 128 µg/mL
MIC [4]: > 128 µg/mL
MIC [5]: 8 µg/mL
MIC ([6]; YPD + 0 mM Ca2+): 8 µg/mL
MIC ([6]; YPD + 2.5 mM Ca2+): 32 µg/mL
MIC [7]: 8 µg/mL
MIC ([8]; YPD + 0 mM Ca2+): 32 µg/mL
MIC ([8]; YPD + 0 mM Mg2+): 16 µg/mL
MIC ([8]; YPD + 2.5 mM Ca2+): >128 µg/mL
MIC ([8]; YPD + 2.5 mM Mg2+): 32 µg/mL
MIC ([8]; YPD + 5 mM Ca2+): >128 µg/mL
MIC ([8]; YPD + 5 mM Mg2+): 32 µg/mL
MIC ([8]; YPD + 10 mM Ca2+): >128 µg/mL
MIC ([8]; YPD + 10 mM Mg2+): 32 µg/mL
MIC ([8]; YPD + 20 mM Ca2+): >128 µg/mL
MIC ([8]; YPD + 20 mM Mg2+): 128 µg/mL
MIC ([9]; YPD + 0 mM Ca2+): 4 µg/mL
MIC ([9]; YPD + 0 mM Mg2+, unit inferred): 8 µg/mL
MIC ([9]; YPD + 2.5 mM Ca2+): 8 µg/mL
MIC ([9]; YPD + 2.5 mM Mg2+, unit inferred): 8 µg/mL
MIC ([9]; YPD + 5 mM Ca2+): 8 µg/mL
MIC ([9]; YPD + 5 mM Mg2+, unit inferred): 8 µg/mL
MIC ([9]; YPD + 10 mM Ca2+): 8 µg/mL
MIC ([9]; YPD + 10 mM Mg2+, unit inferred): 4 µg/mL
MIC ([9]; YPD + 20 mM Ca2+): 8 µg/mL
MIC ([9]; YPD + 20 mM Mg2+, unit inferred): 8 µg/mL
time of peak killing activity [10]: ≤ 2 h
MIC [11]: 8 µg/mL (≈ 6.57 µM)
MIC (SAR screen peptides) [12, 24]: 16
MIC [12, 25]: 16 µg/mL (≈ 13.1 µM)
MIC [13]: 8 µg/mL (≈ 6.57 µM)
MIC [14]: 8 µg/mL (≈ 6.57 µM)
MIC (SAR screen peptides) [15, 24]: 4
MIC [15, 25]: 4 µg/mL (≈ 3.28 µM)
MIC [16]: 8 µg/mL (≈ 6.57 µM)
MIC [17]: 8 µg/mL (≈ 6.57 µM)
MIC [18]: 4 µg/mL (≈ 3.28 µM)
MIC [19]: 8 µg/mL (≈ 6.57 µM)
MIC [20]: 16 µg/mL (≈ 13.1 µM)
MIC [21]: 16 µg/mL (≈ 13.1 µM)
MIC (SAR screen peptides) [22, 24]: 16
MIC [22, 25]: 16 µg/mL (≈ 13.1 µM)
MIC (SAR screen peptides) [23, 24]: 16
MIC [23, 25]: 32 µg/mL (≈ 26.3 µM)
